According to patent publication US12679878B2, “CRF2 receptor agonists and their use in therapy” (SANOFI, priority 2020, dated 2026):
Starred links: 1 amine or outer side, 2 acyl side, 3 side chain; linkers in the order of their positions; H or OH if unused. Residues, ends and D or L forms follow the SMILES beside them. Groups on a side chain read outwards from the residue. No end group written: not given here. *: point of attachment. C18 diacid = O=C(O)CCCCCCCCCCCCCCCCC(=O)*; γGlu = O=C(O)[C@H](CCC(=O)[*:2])N[*:1]; AEEA = NCCOCCOCC(=O)O

How the values were obtained:
human CRF2α receptor = target: T1, human CRF2α receptor (Homo sapiens, UniProt Q13324); test: cAMP agonism at human CRF2 α receptor in TeloHEAC cells (Example 7); format: cell-based; settings: cAMP HTRF, TeloHEAC cells stably expressing human CRF2 α, 0% HSA; read-out: EC50 [nM], 0% HSA
T1 construct: expressed in transfected cells; host or cells: TeloHEAC
T1 sequence (Q13324 1-411): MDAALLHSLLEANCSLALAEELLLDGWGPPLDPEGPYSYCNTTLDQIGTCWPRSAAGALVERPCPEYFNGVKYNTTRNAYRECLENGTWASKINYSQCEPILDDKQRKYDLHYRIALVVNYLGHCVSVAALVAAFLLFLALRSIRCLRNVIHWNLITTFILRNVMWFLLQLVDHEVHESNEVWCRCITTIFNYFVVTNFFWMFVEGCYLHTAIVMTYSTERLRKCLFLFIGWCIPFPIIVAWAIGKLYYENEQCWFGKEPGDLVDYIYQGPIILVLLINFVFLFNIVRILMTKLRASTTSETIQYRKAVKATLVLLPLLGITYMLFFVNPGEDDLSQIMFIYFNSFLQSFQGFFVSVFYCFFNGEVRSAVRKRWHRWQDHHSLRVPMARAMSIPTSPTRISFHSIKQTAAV
How it was run: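 HTRF ratio 665/620 nm, read 1 h after lysis reagents, reports cAMP. Cells: thawed stocks, 2000/well, 30 min RT with compound in HBSS, 20 mM HEPES, 0 or 0.1% HSA, 2 mM IBMX. Activity normalised to UCN2 1000 nM = 100%; EC50 from half-maximal activation.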

[1] = Solubility in buffer systems by UPLC-UV (Example 13); format: physicochemical
How it was run: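 Quantitation used UV peak area from UPLC of the 1:10-diluted supernatant, set against a reference-compound standard curve with extinction coefficients adjusted for amino acid sequence.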

CRF1R receptor = target: T2, CRF1R receptor (Homo sapiens, UniProt P34998); test: cAMP activity at anti-target CRF1R, CRF1R-overexpression CHO cell line (Example 9); format: cell-based; settings: CRF1R-overexpression CHO cell line
T2 construct: host or cells: CHO-K1 clone 2
T2 sequence (P34998 24-415): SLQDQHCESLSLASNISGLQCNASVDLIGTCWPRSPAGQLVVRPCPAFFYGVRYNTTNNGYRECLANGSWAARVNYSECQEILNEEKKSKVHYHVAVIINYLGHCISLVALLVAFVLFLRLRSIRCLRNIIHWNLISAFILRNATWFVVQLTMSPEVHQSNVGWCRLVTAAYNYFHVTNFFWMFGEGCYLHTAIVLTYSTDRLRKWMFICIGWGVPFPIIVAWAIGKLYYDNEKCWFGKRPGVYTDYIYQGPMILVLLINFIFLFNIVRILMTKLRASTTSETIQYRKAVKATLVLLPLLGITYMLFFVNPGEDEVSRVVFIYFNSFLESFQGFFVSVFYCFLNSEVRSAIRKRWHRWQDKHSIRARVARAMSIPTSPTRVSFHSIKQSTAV
How it was run: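 Using thawed CRF1R-overexpressing CHO cells at 2000 per well, compound is applied for 30 min at RT in HBSS/HEPES buffer with IBMX. Cellular cAMP content is determined via HTRF, and percent activity is calculated against 1000 nM UCN2 defined as 100%.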

recombinant human CRF2 = target: T3, recombinant human CRF2 (Homo sapiens, UniProt Q13324); test: CRF2a (h) agonist radioligand binding, [125]sauvagine, HEK cell membranes (Example 11); settings: competition with [125]sauvagine 0.1 nM
T3 construct: expressed in transfected cells; host or cells: HEK
T3 sequence (Q13324 1-411): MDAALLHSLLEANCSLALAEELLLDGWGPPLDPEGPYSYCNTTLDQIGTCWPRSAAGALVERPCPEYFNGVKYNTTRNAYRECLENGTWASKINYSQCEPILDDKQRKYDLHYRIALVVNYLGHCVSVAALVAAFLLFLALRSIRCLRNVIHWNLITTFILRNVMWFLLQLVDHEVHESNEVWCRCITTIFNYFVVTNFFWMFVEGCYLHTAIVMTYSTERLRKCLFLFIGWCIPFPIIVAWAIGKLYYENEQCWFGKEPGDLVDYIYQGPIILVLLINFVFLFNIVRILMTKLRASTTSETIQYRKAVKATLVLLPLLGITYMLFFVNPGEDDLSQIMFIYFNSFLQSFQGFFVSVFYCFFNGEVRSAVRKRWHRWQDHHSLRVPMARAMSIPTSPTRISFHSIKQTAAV
Experimental: Receptor binding of the compounds was assessed using a CRF2a (h) (agonist radioligand) assay.
(§1) HEK cells expressing recombinant human CRF2 were used as a source of receptor for membrane preparation.
(§2) IC50 values (concentration causing a half-maximal inhibition of control specific binding) and Hill coefficients (nH) were determined by non-linear regression analysis of the competition curves generated with mean replicate values using Hill equation curve fitting. The inhibition constants (Ki) were calculated using the Cheng Prusoff equation [Ki=IC50/(1+L/KD) where L is the concentration of radioligand in the assay, and KD is the affinity of the radioligand for the receptor). A Scatchard plot was used to determine the KD.

[2] = Chemical stability, purity loss by UPLC-UV after 28 days at 40° C. vs 5° C., pH 4.5 acetate buffer (Example 12); format: physicochemical; settings: 28 days 40° C. vs 5° C.; pH 4.5, 20 mM acetate buffer; 300 μM
How it was run: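 300 μM compound (purity-corrected) in 20 mM acetate buffer, pH 4.5, stored 28 days at 5 and 40° C. Purity by UPLC-UV as compound peak area over total peak area. Value is the purity difference between 5° C. and 40° C. samples, relative to the 5° C. purity, in percent.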

rat CRF2R α receptor [3] = test: cAMP agonism at rat CRF2R α receptor in A7R5 rat aortic smooth muscle cells (Example 8); format: cell-based; settings: cAMP HTRF, A7R5 rat aortic smooth muscle cell line, 0% HSA
How it was run: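 Potency (EC50) is the concentration reaching half-maximal activation, with responses scaled so that 1000 nM urocortin 2 equals 100%. Intracellular cAMP was quantified by homogeneous time-resolved fluorescence at 665/620 nm, 1 h after lysis-buffer reagents. Compound stimulation lasted 30 min at room temperature on 2000 IBMX-treated (2 mM) cells per well in HEPES-buffered HBSS.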

rat CRF2R α receptor [4] = target: rat CRF2R α receptor (rat, UniProt P47866 20-411); test: cell-based or functional assay
[5] = target: T4, anti-target CRF1R receptor (UniProt P34998 24-415, limits assumed); test: cell-based or functional assay
T4 sequence (looked up): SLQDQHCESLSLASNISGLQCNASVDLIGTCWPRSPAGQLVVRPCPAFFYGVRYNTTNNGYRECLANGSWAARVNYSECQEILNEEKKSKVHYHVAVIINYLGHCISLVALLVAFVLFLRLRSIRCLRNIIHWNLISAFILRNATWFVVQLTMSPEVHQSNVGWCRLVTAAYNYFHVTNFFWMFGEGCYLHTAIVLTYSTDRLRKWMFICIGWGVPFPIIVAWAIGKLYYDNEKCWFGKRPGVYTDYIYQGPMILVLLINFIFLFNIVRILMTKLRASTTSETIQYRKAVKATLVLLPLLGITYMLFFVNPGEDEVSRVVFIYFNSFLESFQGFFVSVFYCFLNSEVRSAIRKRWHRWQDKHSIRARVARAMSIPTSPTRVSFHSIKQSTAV

[6] = target: T5, recombinant human CRF2 (HEK cell membranes) (human, UniProt Q13324 1-411); test: Hill coefficient of the competition curve against [125]sauvagine, HEK membranes with recombinant human CRF2
T5 construct: Whole receptor in membranes prepared from HEK cells; also called CRF2a (h); CRF2 receptor
T5 sequence (looked up): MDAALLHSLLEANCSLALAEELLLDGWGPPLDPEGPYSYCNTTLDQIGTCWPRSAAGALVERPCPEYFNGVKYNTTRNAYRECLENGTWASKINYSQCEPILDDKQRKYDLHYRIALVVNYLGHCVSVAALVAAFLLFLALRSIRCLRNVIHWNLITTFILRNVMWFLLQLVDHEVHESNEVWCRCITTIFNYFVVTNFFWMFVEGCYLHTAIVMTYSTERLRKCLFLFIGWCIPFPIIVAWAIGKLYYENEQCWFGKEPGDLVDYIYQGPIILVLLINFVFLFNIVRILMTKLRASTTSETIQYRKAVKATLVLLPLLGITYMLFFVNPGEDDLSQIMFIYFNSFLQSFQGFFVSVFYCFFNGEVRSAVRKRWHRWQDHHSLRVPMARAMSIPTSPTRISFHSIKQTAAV
Experimental: as §1, §2

Molecule | EC50 (human CRF2α receptor) | solubility at 1 h ([1]; pH 4.5, Solubility in Buffer B [mg/ml]) | solubility at 1 h ([1]; pH 7.4, Solubility in Buffer C [mg/ml]) | EC50 (CRF1R receptor; 0% HSA) | Emax (CRF1R receptor; read-out: Emax (%)) | nH (Hill coefficient) (recombinant human CRF2) | Relative purity loss [%] [2] | EC50 (rat CRF2R α receptor [3]) | EC50 [nM], 0% HSA (cAMP, A7R5 cells) (rat CRF2R α receptor [4]) | EC50[nM] 0% HSA (cAMP, CRF1R-overexpression CHO cells) [5] | Emax (%) (cAMP, CRF1R-overexpression CHO cells) [5] | nH [6]
CC[C@H](C)[C@H](N)C(=O)N[C@H](C(=O)N[C@@H](CC(C)C)C(=O)N[C@@H](CO)C(=O)N[C@@H](CC(C)C)C(=O)N[C@@H](CC(=O)O)C(=O)N[C@H](C(=O)N1CCC[C@H]1C(=O)N[C@H](C(=O)N[C@@H](CCCCN)C(=O)N[C@@H](CC(C)C)C(=O)N[C@@H](CCCCNC(=O)COCCOCCNC(=O)COCCOCCNC(=O)CC[C@H](NC(=O)CCCCCCCCCCCCCCCCC(=O)O)C(=O)O)C(=O)N[C@@H](CCC(N)=O)C(=O)N[C@H](C(=O)N[C@@H](CC(C)C)C(=O)N[C@@H](CC(C)C)C(=O)N[C@@H](CCC(=O)O)C(=O)N[C@@H](CCC(N)=O)C(=O)N[C@@H](CCC(=O)O)C(=O)N[C@@H](CCCNC(=N)N)C(=O)N[C@@H](CCC(N)=O)C(=O)N[C@@H](CCCCN)C(=O)N[C@@H](CCCCN)C(=O)N[C@@H](CCC(N)=O)C(=O)N[C@@H](CCCNC(=N)N)C(=O)N[C@@H](CCC(=O)O)C(=O)N[C@@H](CCC(N)=O)C(=O)N[C@@H](C)C(=O)N[C@@H](CCC(=O)O)C(=O)N[C@H](C(=O)N[C@@H](CC(N)=O)C(=O)N[C@@H](CCCCN)C(=O)N[C@@H](CCC(N)=O)C(=O)N[C@H](C(=O)N[C@@H](CC(C)C)C(=O)N[C@@H](C)C(=O)N[C@@H](CCC(N)=O)C(=O)N[C@H](C(N)=O)C(C)C)[C@@H](C)CC)[C@@H](C)O)[C@@H](C)CC)[C@@H](C)CC)C(C)C)C(C)C [compound 68] (H-IVLSLDVPIKLK([AEEA-AEEA-γGlu-C18 diacid])QILLEQERQKKQREQAETNKQILAQV-NH2; N-terminus assumed) | 0.2 nM | > 9800 µg/mL | > 8900 µg/mL | > 1000 nM | 12.3% | 0.8 | 6.00% | 1.74 nM |  |  |  | 
FTLSLDVPTKIK([AEEA-AEEA-γGlu-C18 diacid])QILLKQQKQKKERQQAEKNKQLLEQI-NH2 (N-terminus assumed; SMILES CC[C@H](C)[C@H](NC(=O)[C@H](CCC(N)=O)NC(=O)[C@H](CCC(=O)O)NC(=O)[C@H](CC(C)C)NC(=O)[C@H](CC(C)C)NC(=O)[C@H](CCC(N)=O)NC(=O)[C@H](CCCCN)NC(=O)[C@H](CC(N)=O)NC(=O)[C@H](CCCCN)NC(=O)[C@H](CCC(=O)O)NC(=O)[C@H](C)NC(=O)[C@H](CCC(N)=O)NC(=O)[C@H](CCC(N)=O)NC(=O)[C@H](CCCNC(=N)N)NC(=O)[C@H](CCC(=O)O)NC(=O)[C@H](CCCCN)NC(=O)[C@H](CCCCN)NC(=O)[C@H](CCC(N)=O)NC(=O)[C@H](CCCCN)NC(=O)[C@H](CCC(N)=O)NC(=O)[C@H](CCC(N)=O)NC(=O)[C@H](CCCCN)NC(=O)[C@H](CC(C)C)NC(=O)[C@H](CC(C)C)NC(=O)[C@@H](NC(=O)[C@H](CCC(N)=O)NC(=O)[C@H](CCCCNC(=O)COCCOCCNC(=O)COCCOCCNC(=O)CC[C@H](NC(=O)CCCCCCCCCCCCCCCCC(=O)O)C(=O)O)NC(=O)[C@@H](NC(=O)[C@H](CCCCN)NC(=O)[C@@H](NC(=O)[C@@H]1CCCN1C(=O)[C@@H](NC(=O)[C@H](CC(=O)O)NC(=O)[C@H](CC(C)C)NC(=O)[C@H](CO)NC(=O)[C@H](CC(C)C)NC(=O)[C@@H](NC(=O)[C@@H](N)Cc1ccccc1)[C@@H](C)O)C(C)C)[C@@H](C)O)[C@@H](C)CC)[C@@H](C)CC)C(N)=O) [peptide of SEQ ID NO: 51] |  |  |  |  |  |  |  |  | 0.87 nM | > 1000 nM | 3.38% | 0.8
